Where two headings read alike, the source gives them in different places. Where a SMILES comes first, the peptide text is derived from it. Bridges are numbered along the chain shown (N, C = ends). [ ]: non-standard residue; d: D form.
Molecular target: L. monocytogenes AgrC (Listeria monocytogenes serovar 1/2a, UniProt Q8YAR5)
Test: Fluorescence (agr-GFP) reporter agonism assay, ΔagrD reporter strain
Format: cell-based
Design: Emax: dose or concentration left out as unconfirmed
Details: for loss in potency: relative to native AIP
Source text: Construction of Listeria agr Reporter Strains. A gene block was designed and purchased from Integrated DNA Technologies to contain an EagI recognition site, the PII promoter of the agr system, the 3′ UTR of hly, super folder GFP, and a SaII recognition site. The gene block was digested with EagI and SaII, cloned into an EagI/SaII-cut pAM401 plasmid resulting in the plasmid pAM401-KW1, and then transformed into E. coli XL1-Blue competent cells. The insertion into pAM401 was confirmed using Kapa polymerase and primers DAP337 and DAP338, and additional confirmation via commercial sequencing. Purified plasmid was transformed into the conjugative E. coli S17 strain, which was used to conjugate to EGD-e and EGD-e ΔagrD to generate the agr-GFP reporter strains EGD-e:pAM401-KW1 and EGD-e ΔagrD:pAM401-KW1. Conjugation was verified using primers DAP337 and DAP338.
Fluorescence reporter assay protocol. For QS (agr) reporter assays, peptide stock solutions in DMSO (1 mM) were serially diluted in DMSO, and 2 μL of solution was added to each well in a black 96-well plate (polystyrene microtiter plate, Costar). Agonism assays utilized the ΔagrD reporter strain, with 2 μL of 100 μM AIP (final concentration 1 μM) as a positive control and 2 μL of DMSO as a negative control. Antagonism assays utilized the EGD-e reporter strain, with 2 μL of DMSO as a positive control. In both assays, wells containing only BHI media served as negative controls for normalization. An overnight culture of bacteria was diluted 1:50 in fresh BHI, then 198 μL were transferred to each well (excluding the media control wells). Plates were then incubated at 37° C. for 24 hours with shaking at 200 rpm. Fluorescence of GFP (excitation at 500 nm, emission at 540 nm) and OD600 of each well was measured using BioTek Synergy 2 plate reader. Measurements were processed by subtracting background fluorescence (BHI media), correcting by OD600, and the normalizing using the 1 μM AIP or the DMSO control for the agonism and antagonism assays, respectively. Non-linear regression curves were fitted to the data sets in GraphPad Prism 7 by using variable slope (four-parameter) dose-response analysis to obtain potency, efficacy, and statistical information about the activity of tested peptides. Each peptide was tested with three technical replicates and three biological replicates. All data derived from fluorescent reporter strains are represented with data points signifying the mean and error bars signifying the standard deviation from all replicates.
Preparation and Validation of Listeria agr Reporter Strains. In order to facilitate profiling the native AIP and its analogs for agr activity, L. monocytogenes agr GFP reporters were designed and constructed as described above (see Materials and General Methods). Briefly, a plasmid containing the agr promoter region upstream of gfp was transformed into wild-type (EGD-e) and ΔagrD L. monocytogenes strains. The wild-type reporter naturally produces its own AIP and is able to activate AgrC, which may subsequently phosphorylate AgrA for productive binding to DNA and triggering the production of GFP (FIG. 1A). The ΔagrD reporter, lacking the ability to produce its own AIP and thereby activate AgrC, is unable to trigger substantial production of GFP. However, adding exogenous AIP to the ΔagrD reporter results in an increase of fluorescence, indicating agr activity has been restored.

[1] = read-out: Max Activation Observed

Sequence of L. monocytogenes AgrC (Q8YAR5 entry or part of it): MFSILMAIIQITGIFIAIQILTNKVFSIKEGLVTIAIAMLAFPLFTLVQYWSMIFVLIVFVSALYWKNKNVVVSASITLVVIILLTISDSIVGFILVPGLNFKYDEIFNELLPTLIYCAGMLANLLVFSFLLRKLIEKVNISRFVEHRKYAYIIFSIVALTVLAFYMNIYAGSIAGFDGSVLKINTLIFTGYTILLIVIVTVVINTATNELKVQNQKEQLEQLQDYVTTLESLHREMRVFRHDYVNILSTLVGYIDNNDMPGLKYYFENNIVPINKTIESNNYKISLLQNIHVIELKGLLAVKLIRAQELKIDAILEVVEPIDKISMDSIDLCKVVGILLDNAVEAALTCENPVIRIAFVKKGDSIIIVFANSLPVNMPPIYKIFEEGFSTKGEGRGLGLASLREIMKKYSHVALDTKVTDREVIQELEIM

Compound	Emax (read-out: Max Activation) [%]	other results
CSCC[C@@H]1NC(=O)[C@H](Cc2ccccc2)NC(=O)[C@@H](NC(=O)[C@H](C)N)CSC(=O)[C@H](C(C)C)NC(=O)[C@@H](Cc2ccccc2)NC1=O [AIP F5dF, A-(C-F-M-dF-V)] (H-ACFM[dF]V; thioester 2-C; N-terminus assumed)	–	loss in potency (agonism): two orders of magnitude; Emax [1]: 72.3%; agonism activity (in words) (ΔagrD reporter): maintain some agonism activity
CC(C)[C@@H]1NC(=O)[C@H](Cc2ccccc2)NC(=O)[C@H](C)NC(=O)[C@H](Cc2ccccc2)NC(=O)[C@@H](NC(=O)[C@H](C)N)CSC1=O [AIP M4A, A-(C-F-A-F-V)] (H-ACFAFV; thioester 2-C; N-terminus assumed)	–	Emax [1]: 53.5%; EC50 (in words) (ΔagrD reporter): low micromolar range; agonism activity (in words) (ΔagrD reporter): decreased potency and agonism compared to the native AIP
CC(C)[C@@H]1NC(=O)[C@H](Cc2ccccc2)NC(=O)[C@@H](C)NC(=O)[C@H](Cc2ccccc2)NC(=O)[C@@H](NC(=O)[C@H](C)N)CSC1=O [AIP M4dA, A-(C-F-dA-F-V)] (H-ACF[dA]FV; thioester 2-C; N-terminus assumed)	–	improved potency (agonism, relative to AIP M4A): about four-fold; Emax [1]: 82%
CSCC[C@@H]1NC(=O)[C@H](Cc2ccccc2)NC(=O)[C@@H](NC(=O)[C@H](C)N)CSC(=O)[C@H](C)NC(=O)[C@H](Cc2ccccc2)NC1=O [AIP V6A, A-(C-F-M-F-A)] (H-ACFMFA; thioester 2-C; N-terminus assumed)	69	Emax [1]: 69%; agonism activity (in words) (ΔagrD reporter): decreased potency and agonism compared to the native AIP
CSCC[C@@H]1NC(=O)[C@H](Cc2ccccc2)NC(=O)[C@@H](NC(=O)[C@H](C)N)CSC(=O)[C@@H](C(C)C)NC(=O)[C@H](Cc2ccccc2)NC1=O [AIP V6dV, A-(C-F-M-F-dV)] (H-ACFMF[dV]; thioester 2-C; N-terminus assumed)	–	Emax [1]: 72.9%
CSCC[C@@H]1NC(=O)[C@H](Cc2ccccc2)NC(=O)[C@@H](NC(C)=O)CSC(=O)[C@H](C(C)C)NC(=O)[C@H](Cc2ccccc2)NC1=O [Ac-5-mer, Ac-(C-F-M-F-V)] (Ac-CFMFV; thioester 1-C)	75.3	–
CSCC[C@@H]1NC(=O)[C@H](Cc2ccccc2)NC(=O)[C@@H](N)CSC(=O)[C@H](C(C)C)NC(=O)[C@H](Cc2ccccc2)NC1=O [Compound 5-mer, (C-F-M-F-V)] (H-CFMFV; thioester 1-C)	110	loss in potency (agonism): ten-fold; agonism activity (in words) (ΔagrD reporter): fully maintained its agonism activity
CSCC[C@@H]1NC(=O)[C@H](Cc2ccccc2)NC(=O)[C@@H](NC(=O)[C@H](C)NC(=O)[C@@H](N)CCCCN)CSC(=O)[C@H](C(C)C)NC(=O)[C@H](Cc2ccccc2)NC1=O [Compound 7-mer, K-A-(C-F-M-F-V)] (H-KACFMFV; thioester 3-C; N-terminus assumed)	64.6	–
CSCC[C@@H]1NC(=O)[C@H](Cc2ccccc2)NC(=O)[C@@H](NC(=O)[C@H](C)NC(=O)[C@H](CCCCN)NC(=O)[C@@H](N)CO)CSC(=O)[C@H](C(C)C)NC(=O)[C@H](Cc2ccccc2)NC1=O [Compound 8-mer, S-K-A-(C-F-M-F-V)] (H-SKACFMFV; thioester 4-C; N-terminus assumed)	71.5	–
CSCC[C@@H]1NC(=O)[C@H](Cc2ccccc2)NC(=O)[C@@H](NC(=O)[C@H](C)NC(=O)[C@H](CCCCN)NC(=O)[C@H](CO)NC(=O)[C@@H](N)CCSC)CSC(=O)[C@H](C(C)C)NC(=O)[C@H](Cc2ccccc2)NC1=O [Compound 9-mer, M-S-K-A-(C-F-M-F-V)] (H-MSKACFMFV; thioester 5-C; N-terminus assumed)	93.6	–
CSCC[C@@H]1NC(=O)[C@H](Cc2ccccc2)NC(=O)[C@@H](NC(=O)[C@H](C)NC(=O)[C@H](CCCCN)NC(=O)[C@H](CO)NC(=O)[C@H](CCSC)NC(=O)[C@@H](N)CO)CSC(=O)[C@H](C(C)C)NC(=O)[C@H](Cc2ccccc2)NC1=O [Compound 10-mer, S-M-S-K-A-(C-F-M-F-V)] (H-SMSKACFMFV; thioester 6-C; N-terminus assumed)	110	–
CSCC[C@@H]1NC(=O)[C@H](Cc2ccccc2)NC(=O)[C@@H](NC(=O)[C@H](C)NC(=O)[C@H](CCCCN)NC(=O)[C@H](CO)NC(=O)[C@H](CCSC)NC(=O)[C@H](CO)NC(=O)[C@@H](N)CO)CSC(=O)[C@H](C(C)C)NC(=O)[C@H](Cc2ccccc2)NC1=O [Compound 11-mer, S-S-M-S-K-A-(C-F-M-F-V)] (H-SSMSKACFMFV; thioester 7-C; N-terminus assumed)	111	–
CSCC[C@H](NC(=O)[C@H](CO)NC(=O)[C@H](CO)NC(=O)[C@@H](N)CC(=O)O)C(=O)N[C@@H](CO)C(=O)N[C@@H](CCCCN)C(=O)N[C@@H](C)C(=O)N[C@H]1CSC(=O)[C@H](C(C)C)NC(=O)[C@H](Cc2ccccc2)NC(=O)[C@H](CCSC)NC(=O)[C@H](Cc2ccccc2)NC1=O [Compound 12-mer, D-S-S-M-S-K-A-(C-F-M-F-V)] (H-DSSMSKACFMFV; thioester 8-C; N-terminus assumed)	116	–
CSCC[C@H](NC(=O)[C@H](CO)NC(=O)[C@H](CO)NC(=O)[C@H](CC(=O)O)NC(=O)[C@H](C)N)C(=O)N[C@@H](CO)C(=O)N[C@@H](CCCCN)C(=O)N[C@@H](C)C(=O)N[C@H]1CSC(=O)[C@H](C(C)C)NC(=O)[C@H](Cc2ccccc2)NC(=O)[C@H](CCSC)NC(=O)[C@H](Cc2ccccc2)NC1=O [Compound 13-mer, A-D-S-S-M-S-K-A-(C-F-M-F-V)] (H-ADSSMSKACFMFV; thioester 9-C; N-terminus assumed)	108	–
CSCC[C@H](NC(=O)[C@H](CO)NC(=O)[C@H](CO)NC(=O)[C@H](CC(=O)O)NC(=O)[C@H](C)NC(=O)[C@@H](N)C(C)C)C(=O)N[C@@H](CO)C(=O)N[C@@H](CCCCN)C(=O)N[C@@H](C)C(=O)N[C@H]1CSC(=O)[C@H](C(C)C)NC(=O)[C@H](Cc2ccccc2)NC(=O)[C@H](CCSC)NC(=O)[C@H](Cc2ccccc2)NC1=O [Compound 14-mcr, V-A-D-S-S-M-S-K-A-(C-F-M-F-V)] (H-VADSSMSKACFMFV; thioester 10-C; N-terminus assumed)	105	–
CSCC[C@H](NC(=O)[C@H](CO)NC(=O)[C@H](CO)NC(=O)[C@H](CC(=O)O)NC(=O)[C@H](C)NC(=O)[C@@H](NC(=O)[C@@H](N)CCCCN)C(C)C)C(=O)N[C@@H](CO)C(=O)N[C@@H](CCCCN)C(=O)N[C@@H](C)C(=O)N[C@H]1CSC(=O)[C@H](C(C)C)NC(=O)[C@H](Cc2ccccc2)NC(=O)[C@H](CCSC)NC(=O)[C@H](Cc2ccccc2)NC1=O [Compound 15-mer, K-V-A-D-S-S-M-S-K-A-(C-F-M-F-V)] (H-KVADSSMSKACFMFV; thioester 11-C; N-terminus assumed)	122	–
CC(=O)N[C@H]1CSC(=O)[C@H](C(C)C)NC(=O)[C@H](Cc2ccccc2)NC(=O)CNC(=O)[C@H](C(C)C)NC1=O [L. grandensis tr AIP, Ac-(C-V-G-F-V), reference compound] (Ac-CVGFV; thioester 1-C)	10.1	–
CSCC[C@@H]1NC(=O)[C@H](CO)NC(=O)[C@@H](NC(=O)[C@H](C)N)CSC(=O)[C@H](C)NC(=O)[C@H](Cc2ccccc2)NC1=O [L. grayi AIP, A-(C-S-M-F-A), reference compound] (H-ACSMFA; thioester 2-C; N-terminus assumed)	10.7	–

From patent US12116424B2, “Compounds and compositions for modulating Listeria virulence” (priority 2021, dated 2024)
